Holding throughout (format): cell-based
In one assay the test system is H23. Briefly: Growth suppression, cancer cell line panel (resazurin). The settings on record: H23 lung, 48 hours. The method, then: (§1) Breast, colon, ovarian, cervical, liver and lung carcinoma cell lines were grown in DMEM supplemented with 10% FBS, and antibiotics were cultured at 37 °C and 5% CO2. Osteosarcoma, melanoma, lymphoma, neuroblastoma and leukemia cell lines were cultured in RPMI 1640 with 10% FBS and antibiotics. An oxygen concentration of 0.3% was obtained by flushing a sealed box containing the cells with premixed gas composed of 95% nitrogen (N2) and 5% CO2 (AGA AB, Sweden). To obtain an oxygen concentration of 0.05%, the cells were flushed with the premixed gas continuously throughout the experiment.
(§2) Cells were grown in 96-well plates at a density of 3000 cells per well with or without doxycycline and treated with compounds. After 48 hours of incubation the proliferative cell reagent resazurin (Thermo Fisher Scientific) was added to the cells. The degree of resazurin reduction, which reflects cell viability, was measured by microplate reader by monitoring the absorbance at 570 nm and 600 nm, according to the manufacturer.
(§3) Growth suppression by the soluble compound 1d*HCl in a panel of 27 cancer cell lines. The panel of cancer cell lines, including carcinomas of breast (MDA-MB231, SKBR3, T47D, MCF7; BT549, BT20, MDA-MB468), colon, (SW480, RKO, HT29, HCT116) ovarian (OVCAR3, OVCAR4, OVCAR8), cervical (SW756, C33A), liver (HEPG2) and lung (H23), osteosarcoma (SJSA and U2OS), melanoma (ME180), lymphoma (Raji, HDLM2), neuroblastoma (SKNAS, IMR32) and leukemia (NB4, K562) were treated with increasing concentrations of 1d*HCl: 0.4; 0.8; 1.6; 3.2; 6.4; 12.8; 25.6 µM in 96-well plates. After 48 hours of incubation the proliferative cell reagent resazurin was added to the cells. The degree of resazurin reduction, which reflects cell viability, was measured by microplate reader by monitoring the absorbance at 570 nm and 600 nm, according to the manufacturer, and the IC50 and AUC (area under curve) were determined (Table 2). As could be seen in Table 2, 1d*HCl suppressed the growth of cancer cell lines of a different origin, including carcinomas, osteosarcomas, melanoma, lymphoma, leukemia and neuroblastoma. These findings open up a possibility of the application of the present invention in anti-cancer therapy in a broad range of tumor types. Table 2: a) Breast cancer
In general terms: Alamar Blue is a resazurin reagent that responds to reducing activity.

The next assay concerns MDA-MB-468. The description is as above. The conditions noted are these: MDA-MB-468 breast, 48 hours. The method, then:
as §1, §2, §3

The subject of a further assay is ME180. Described as above. The settings on record: ME180 (table section Cervical), 48 hours. The method, then:
as §1, §2, §3

For the next assay, the system named is OVCAR4. The description is as above. The settings on record: OVCAR4 ovarian, 48 hours. As for the experimental part: as §1, §2, §3
The subject of the next assay is T47D. The description is as above. The settings on record: T47D breast, 48 hours. As for the experimental part:
as §1, §2, §3

The subject of another assay is MCF7 cells. Briefly: Apoptosis detection by FACS (Annexin V staining). The conditions noted are these: 2 µM, 24h treatment. The method, then:
Cells were placed on 12-well plate at a density of 30000/cm^2 and treated with compounds. After 24h incubation cells were harvested by trypsinization, fixed with 70% ethanol, treated with RNase A (0.25 mg/ml) and stained with Annexin V according to manufacturer's instructions (Thermo Fisher Scientific). Samples were analyzed on a Becton Dickinson FACScan. Data were analyzed by the CellQuest software, version 3.2.1.
To find out whether the growth suppression by 1d*HCl is due to triggering cell death by apoptosis, we performed the Annexin V-mediated staining of phosphatidylserine, exposed on surface of cells undergoing apoptotic cell death. We detected Annexin V-positive cells using FACS.
A general note: A flow cytometer gives signals particle by particle.

A further assay concerns HCT116 cells. Briefly: Growth suppression in the presence of antioxidant NAC. The conditions noted are these: HCT116, 5 mM NAC pre-treatment 16h; 2.5, 5 and 10 µM; 24h after treatment. The method, then:
as §2
To find out whether oxidative stress plays a role in cancer cell death induced by 1d*HCl, we tested the extent of growth suppression by the treatment in the presence of antioxidant N-acetyl cysteine (NAC), which neutralize ROS. We pre-treated HCT116 cells with 5 mM NAC. After 16h of incubation with NAC, we treated HCT116 cells with 2.5, 5, and 10 µM of 1d*HCl. We measured the growth suppression 24h after treatment. […] Thus, we conclude that the mechanism of cancer cell growth suppression is dependent on the induction of oxidative stress by the compounds of the present invention.

The target of a further assay is T1, TrxRl covalent dimers (Homo sapiens, UniProt Q16881).
T1 construct: endogenous in cells; host or cells: MCF7 (A37, A39); HCT116 (A39)
The experiment in a line: Detection of TrxR dimers by Western blot. The settings on record: HCT116 and MCF7 cells, 5 µM, detected as soon as 2h after treatment. The method, then: The extraction of total cell lysates and western blot were performed according to standard procedure. The antibodies used for immunoblotting were: p53 (sc-126, Santa Cruz Biotechnology), γH2AX (#07-164, Millipore), TrxRl 19A1 (AbFrontier). Anti-β-actin monoclonal antibody (Millipore) was used as loading control. The horseradish peroxidase-coupled secondary antibodies (Jackson ImmunoResearch) and SuperSignal™ West Dura Extended Duration Substrate detection system (Thermo Fischer Scientific), and images were visualized using ChemiDoc Imaging System (Bio-Rad).
MCF7 or HCT116 cells were treated in culture with 5 or 10 µM of 1d*HCl (Example 4) in complete medium for 2h or 6h. For each case, duplicate drug treated samples were produced plus duplicate control treatment samples using equal volumes of the drug vehicle dimethyl sulfoxide. Detached cells from each biological replicate were washed, suspended in PBS containing protease inhibitors and cells lysed through freeze thaw cycles in liquid N2, according to the reference protocol. Soluble fraction was separated from precipitated protein by ultracentrifugation at 100000 g for 30 minutes at 4°C and TrxRl dimer formation was analysed using Western blot as described above. […]
Background: A western blot detects proteins with antibodies after separation by electrophoresis.

Molecules are shown by their SMILES.

T1 sequence (Q16881 151-649): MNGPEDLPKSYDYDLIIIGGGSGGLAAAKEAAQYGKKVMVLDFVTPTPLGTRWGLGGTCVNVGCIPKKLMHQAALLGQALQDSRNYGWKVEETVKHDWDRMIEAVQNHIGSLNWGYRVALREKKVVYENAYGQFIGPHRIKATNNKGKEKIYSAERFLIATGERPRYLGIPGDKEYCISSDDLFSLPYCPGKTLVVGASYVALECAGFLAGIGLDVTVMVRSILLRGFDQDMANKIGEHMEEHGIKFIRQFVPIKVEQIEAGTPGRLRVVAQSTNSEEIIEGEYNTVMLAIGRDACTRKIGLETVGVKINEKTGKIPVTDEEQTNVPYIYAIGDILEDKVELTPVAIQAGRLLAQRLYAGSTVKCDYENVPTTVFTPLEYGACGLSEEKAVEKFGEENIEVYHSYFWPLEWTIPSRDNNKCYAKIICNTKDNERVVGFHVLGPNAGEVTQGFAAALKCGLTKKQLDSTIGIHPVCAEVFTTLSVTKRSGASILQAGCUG

Take `Cl.N#Cc1c(-c2cccnc2)[n+]([O-])c2cc(F)c(N3CCOCC3)cc2[n+]1[O-]` [1d*HCl, 6-Fluoro-7-(morpholin-4-yl)-3-(pyridin-3-yl)quinoxaline-2-carbonitrile-1,4-dioxide hydrochloride]: the AUC in the assay on H23 (area under curve, 0.4-25.6 µM) is listed as 5,38; in the assay with MDA-MB-468 (area under curve, 0.4-25.6 µM), 4,04; in the assay with ME180 (area under curve, 0.4-25.6 µM) it was 2,72; in the assay with OVCAR4 (area under curve, 0.4-25.6 µM), 3,7; with T47D (area under curve, 0.4-25.6 µM), 3,93. For the same molecule, the IC50 in the assay on H23 (Homo sapiens, NCI-H23, resazurin, read-out: ICso) was determined as 3540 nM; in the assay on MDA-MB-468 (Homo sapiens, resazurin), 2780 nM; in the assay on ME180 (Homo sapiens, ME-180, resazurin), 2230 nM; in the assay with OVCAR4 (Homo sapiens, OVCAR-4, resazurin) it was 1570 nM; in the assay with T47D (Homo sapiens, resazurin), 2740 nM. Besides, the “Annexin V-positive cells” value with MCF7 cells is “induced Annexin V-positive cells statistically significantly”. Besides, the “growth suppression in the presence of NAC” value in the assay on HCT116 cells is recorded as “almost completely abolished the growth suppression”. Besides, the “formation of TrxRl covalent dimers (130 kDa band)” value on TrxRl covalent dimers is listed as “induces the formation of TrxRl covalent dimers”.

The values are drawn from EP4201929A1, “QUINOXALINE THIOREDOXIN REDUCTASE INHIBITORS” (geneXplain GmbH, priority 2021, dated 2023).
